Activity calls are given as the source filed them.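 How the source made its calls: active means 40% activation versus positive control reached by fitted dose-response curve at or below highest valid tested dose; inconclusive means poor fit quality, or flat fit with activation between 30% and 70%; inactive means the rest.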
System: 68-5-11 mouse fibroblast XiGFP reporter, % GFP-positive imaging, 3 d
Assay: Xi-linked GFP reactivating small molecules – imaging, 68-5-11 mouse fibroblasts, cherry-pick, dose response (AID 743394);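 further: sensitizer 5-aza-dC present in the wells at 0.5 mM final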
Conditions: cells co-treated with 5-aza-dC sensitizer

Structure (SMILES) | AC40
Cc1ccc(S(=O)(=O)N2CC3(O)CN(C(=O)OC(C)C)N(C(=O)OC(C)C)CC3(OC(=O)NCc3ccccc3)C2)cc1 (stereo not given) | 13.8 µM
CCOC(=O)Cn1c(=O)c(-c2cc(Br)ccc2N)nc2ccccc21 | 12.5 µM
CN(C)CCCN1C(=O)c2cccc3c([N+](=O)[O-])ccc(c23)C1=O | 6.06 µM
CCN(CC)c1ccc(/C=C/c2cc(-c3ccccc3)c3ccccc3n2)cc1 | 1.68 µM
CC(C)N1CCc2c(sc(NC(=O)c3ccc4ccccc4c3)c2C(N)=O)C1 | 13.3 µM
CN1/C(=C/C=C(C#N)C#N)C(C)(C)c2ccccc21 | 11.3 µM
Nc1c(C(=O)Nc2ccc(S(=O)(=O)N3CCCC3)cc2)sc2nc3cc4c(cc3cc12)CCC4 | 4.29 µM
Cc1ccc(Cl)c2c(N=Nc3ccccc3)c(O)[nH]c12 | 7.83 µM
Cc1ccc2cc3c(N)c(C(=O)Nc4c(C)[nH]c(=O)[nH]c4=O)sc3nc2c1 | 13.2 µM
CC(=O)Nc1cc2c3c(cccc3c1)-c1ccccc1-2 | 2.56 µM
CC(NC(=O)/C(C#N)=C/c1ccc([N+](=O)[O-])o1)c1ccccc1 (stereo not given) | 6.75 µM
F[B-](F)(F)c1cnc2ccccc2c1 | > 6.8 µM (inactive)
c1ccc(-c2cnn3c(-c4ccccc4)c(-c4ccccc4)nc3n2)cc1 | 1.8 µM
COc1ccc(C(=O)c2sc3nc(C)cc(-c4cccs4)c3c2N)cc1 | 7.57 µM
C#Cc1cc(N2CCN(C(=O)c3ccoc3)CC2)n2nc(-c3cccc(Cl)c3)cc2n1 | 8.99 µM
NC(=O)c1c(NC(=O)c2ccccc2)sc2c1CCN(Cc1ccccc1)C2 | 15.8 µM
CN(C)c1ccc(/C=C(/C#N)C(=O)NCc2ccccc2)o1 | 10.3 µM
O=C(NC1CCCC1)c1cccc2c1C(=O)c1ccc(/C=C/c3ccccc3)cc1S2(=O)=O | 5.54 µM

Structure (SMILES) | AC40
Cc1cccc(-c2cccc3[nH]c4c(c23)CCN2C(=O)[C@H]3[C@H](C)ON(C)[C@H]3C[C@@H]42)c1 | 10.8 µM
COc1ccccc1-[n+]1c(C)cc(/C=C2\Sc3ccccc3N2C)cc1C | 0.249 µM
COc1ccc(NC(=O)Nc2ccc3c(c2)CC(=O)N([C@H](C)CO)C[C@H](C)[C@@H](CN(C)S(=O)(=O)c2ccc(F)cc2)O3)cc1 | 18.6 µM
COc1cc2c3nnc(-c4ccccc4)c-3cn(Cc3ccccc3F)c2cc1OC | 1.27 µM
Cc1nonc1NC(=O)CSc1nc2c(C)cccc2cc1C#N | 6.5 µM
COC1C(CO)OC(n2c3c(Cl)cccc3c3c4c(c5c6cccc(Cl)c6[nH]c5c32)C(=O)NC4=O)C(O)C1O (stereo not given) | 13.8 µM
Cn1cc(C2=C(c3ccc(Cl)cc3Cl)C(=O)NC2=O)c2ccccc21 | 6.16 µM
O=C(NCc1ccccc1)c1cccc2c1C(=O)c1ccc(/C=C/c3ccccc3)cc1S2(=O)=O | 8.5 µM
Cc1cccc(NC(=O)/C=C/c2ccc([N+](=O)[O-])s2)c1 | 1.58 µM
C[C@H]1CCCCO[C@H](CN(C)S(=O)(=O)c2ccc(Cl)cc2)[C@@H](C)CN([C@@H](C)CO)C(=O)c2cc(NC(=O)Nc3ccccc3)ccc2O1 | > 19.5 µM (inactive)
CC(=NNc1nc2ccccc2o1)c1cc2ccccc2cn1 | 2.86 µM
Cc1nnc(N2C(=O)c3cccc4c([N+](=O)[O-])ccc(c34)C2=O)s1 | > 19.5 µM (inactive)
C/C(=N\Nc1ncnc2sc(C)c(C)c12)c1ccccn1 | 0.784 µM
COc1ccc(/C=C/C(=O)c2ccc([N+](=O)[O-])o2)cc1OC | 14.3 µM
CCOC(=O)/C(=C/C=C1\Sc2cc(C)c(C)cc2N1CC)C(C)=O | 16.9 µM
CCCCN(C)C1=CC2=CC(=C(C#N)C#N)CCC2CC1 (stereo not given) | 2.86 µM
CCN1/C(=C/c2ccc3cc(C)ccc3[n+]2CC)Sc2cc(C)c(C)cc21 | 1.29 µM
